Laboratory results taken from the kinase profiling compilation of Christmann-Franck et al. (2016).

Legend:
Assay in all cases: KINOMEscan competition binding
Settings in all cases: compound 0.1 µM
PHKG2 (human) = PHKG2 (human) (UniProt P15735)
IRAK1 (human) = IRAK1 (human) (UniProt P51617)
RPS6KA6 KD2 (human) = RPS6KA6 KD2 (human) (UniProt Q9UK32)
PRKCH (human) = PRKCH (human) (UniProt P24723)
[1] = test system: ABL1 (human), P00519 [H396P]
[2] = test system: ABL1 (human), P00519 [F317L]
MAPKAPK2 (human) = MAPKAPK2 (human) (UniProt P49137)
MAST1 (human) = MAST1 (human) (UniProt Q9Y2H9)
[3] = test system: PIK3CA (human), P42336 [E542K]
MERTK (human) = MERTK (human) (UniProt Q12866)
MERTK (human), sequence (Q12866 whole entry, looked up): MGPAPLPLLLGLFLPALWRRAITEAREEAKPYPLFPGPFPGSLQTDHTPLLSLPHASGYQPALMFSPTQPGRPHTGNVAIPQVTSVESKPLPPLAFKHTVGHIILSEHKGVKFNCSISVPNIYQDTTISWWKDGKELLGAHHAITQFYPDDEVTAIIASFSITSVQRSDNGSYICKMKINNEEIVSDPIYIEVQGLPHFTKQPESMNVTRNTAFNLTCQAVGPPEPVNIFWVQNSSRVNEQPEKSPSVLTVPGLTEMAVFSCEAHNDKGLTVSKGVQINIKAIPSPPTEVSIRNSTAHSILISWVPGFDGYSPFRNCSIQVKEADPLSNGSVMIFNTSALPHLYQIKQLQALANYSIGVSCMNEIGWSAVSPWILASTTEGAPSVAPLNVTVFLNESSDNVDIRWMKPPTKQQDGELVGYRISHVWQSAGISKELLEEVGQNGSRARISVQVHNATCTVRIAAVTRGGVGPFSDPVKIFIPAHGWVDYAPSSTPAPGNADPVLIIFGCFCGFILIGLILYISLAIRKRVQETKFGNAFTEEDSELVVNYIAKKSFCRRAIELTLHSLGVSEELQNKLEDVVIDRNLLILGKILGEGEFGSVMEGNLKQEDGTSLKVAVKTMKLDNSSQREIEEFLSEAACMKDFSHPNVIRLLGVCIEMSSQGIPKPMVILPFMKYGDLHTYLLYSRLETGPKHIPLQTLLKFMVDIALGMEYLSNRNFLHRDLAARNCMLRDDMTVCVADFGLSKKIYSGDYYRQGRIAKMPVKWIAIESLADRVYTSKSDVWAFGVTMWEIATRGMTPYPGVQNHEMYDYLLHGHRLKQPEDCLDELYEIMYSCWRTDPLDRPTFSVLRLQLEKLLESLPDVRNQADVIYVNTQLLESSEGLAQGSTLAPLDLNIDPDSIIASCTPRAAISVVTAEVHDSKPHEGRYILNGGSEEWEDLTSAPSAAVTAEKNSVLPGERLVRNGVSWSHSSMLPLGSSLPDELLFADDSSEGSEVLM

[4] = test system: PIK3CA (human), P42336 [Q546K]
WEE1 (human) = WEE1 (human) (UniProt P30291)
DAPK3 (human) = DAPK3 (human) (UniProt O43293)
DAPK3 (human), sequence (O43293 whole entry, looked up): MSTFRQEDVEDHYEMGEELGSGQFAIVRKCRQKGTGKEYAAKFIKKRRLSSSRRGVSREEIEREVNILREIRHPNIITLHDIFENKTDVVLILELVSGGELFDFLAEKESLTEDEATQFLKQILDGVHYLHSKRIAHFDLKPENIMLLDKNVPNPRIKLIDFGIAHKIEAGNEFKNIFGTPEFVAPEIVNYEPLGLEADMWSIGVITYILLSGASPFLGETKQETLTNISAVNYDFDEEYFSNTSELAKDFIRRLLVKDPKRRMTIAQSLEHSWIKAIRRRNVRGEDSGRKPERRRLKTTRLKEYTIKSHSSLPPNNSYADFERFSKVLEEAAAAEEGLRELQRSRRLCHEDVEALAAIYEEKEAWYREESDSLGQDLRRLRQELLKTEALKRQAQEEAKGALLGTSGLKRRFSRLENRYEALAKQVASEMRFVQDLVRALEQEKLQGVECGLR

EPHB6 (human) = EPHB6 (human) (UniProt O15197)
EPHB6 (human), sequence (O15197 whole entry, looked up): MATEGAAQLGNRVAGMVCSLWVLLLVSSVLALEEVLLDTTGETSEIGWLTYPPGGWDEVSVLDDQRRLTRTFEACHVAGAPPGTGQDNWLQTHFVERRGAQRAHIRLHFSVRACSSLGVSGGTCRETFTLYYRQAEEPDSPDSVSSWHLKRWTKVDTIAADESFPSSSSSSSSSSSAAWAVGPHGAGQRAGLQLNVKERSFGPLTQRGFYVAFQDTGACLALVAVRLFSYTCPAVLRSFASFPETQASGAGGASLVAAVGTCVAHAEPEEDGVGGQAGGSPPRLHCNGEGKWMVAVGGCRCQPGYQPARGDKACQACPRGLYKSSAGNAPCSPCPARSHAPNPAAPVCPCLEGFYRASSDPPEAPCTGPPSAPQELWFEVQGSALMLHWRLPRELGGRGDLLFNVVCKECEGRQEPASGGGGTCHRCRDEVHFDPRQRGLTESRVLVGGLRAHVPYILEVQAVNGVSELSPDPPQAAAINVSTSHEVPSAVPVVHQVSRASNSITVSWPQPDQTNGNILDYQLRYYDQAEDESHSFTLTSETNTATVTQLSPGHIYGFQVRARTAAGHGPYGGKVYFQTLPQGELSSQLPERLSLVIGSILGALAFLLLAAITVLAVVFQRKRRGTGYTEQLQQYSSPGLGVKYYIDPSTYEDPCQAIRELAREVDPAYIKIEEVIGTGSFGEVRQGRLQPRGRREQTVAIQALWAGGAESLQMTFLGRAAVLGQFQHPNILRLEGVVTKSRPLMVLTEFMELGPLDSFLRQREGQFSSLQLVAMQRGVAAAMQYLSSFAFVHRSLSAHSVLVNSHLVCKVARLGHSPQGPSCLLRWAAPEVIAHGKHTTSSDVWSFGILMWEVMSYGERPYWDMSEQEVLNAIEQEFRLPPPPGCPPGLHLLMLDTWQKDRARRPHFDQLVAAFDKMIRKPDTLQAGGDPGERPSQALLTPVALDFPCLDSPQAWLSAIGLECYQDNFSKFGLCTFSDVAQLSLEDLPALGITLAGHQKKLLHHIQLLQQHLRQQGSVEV

[5] = test system: KIT (human), P10721 [V559D]
CAMK1D (human) = CAMK1D (human) (UniProt Q8IU85)
[6] = test system: EGFR (human), P00533 [G719S]
[7] = test system: KIT (human), P10721 [A829P]
BMP2K (human) = BMP2K (human) (UniProt Q9NSY1)
HIPK4 (human) = HIPK4 (human) (UniProt Q8NE63)
PKN2 (human) = PKN2 (human) (UniProt Q16513)
MAPK8 (human) = MAPK8 (human) (UniProt P45983)
CSNK1G2 (human) = CSNK1G2 (human) (UniProt P78368)
CDK15 (human) = CDK15 (human) (UniProt Q96Q40)
MAP3K6 (human) = MAP3K6 (human) (UniProt O95382)
CSK (human) = CSK (human) (UniProt P41240)
BMX (human) = BMX (human) (UniProt P51813)
NEK6 (human) = NEK6 (human) (UniProt Q9HC98)
NEK7 (human) = NEK7 (human) (UniProt Q8TDX7)
NEK7 (human), sequence (Q8TDX7 whole entry, looked up): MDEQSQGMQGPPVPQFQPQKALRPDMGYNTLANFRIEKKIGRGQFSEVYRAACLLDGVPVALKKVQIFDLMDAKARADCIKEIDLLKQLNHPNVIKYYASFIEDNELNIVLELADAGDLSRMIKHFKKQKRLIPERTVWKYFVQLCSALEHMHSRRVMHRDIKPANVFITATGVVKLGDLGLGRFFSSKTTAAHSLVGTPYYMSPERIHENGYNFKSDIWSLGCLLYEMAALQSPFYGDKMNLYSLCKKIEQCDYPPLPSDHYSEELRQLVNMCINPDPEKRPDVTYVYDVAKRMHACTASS

RPS6KA2 KD1 (human) = RPS6KA2 KD1 (human) (UniProt Q15349)
CDK16 (human) = CDK16 (human) (UniProt Q00536)
TIE1 (human) = TIE1 (human) (UniProt P35590)
TIE1 (human), sequence (P35590 whole entry, looked up): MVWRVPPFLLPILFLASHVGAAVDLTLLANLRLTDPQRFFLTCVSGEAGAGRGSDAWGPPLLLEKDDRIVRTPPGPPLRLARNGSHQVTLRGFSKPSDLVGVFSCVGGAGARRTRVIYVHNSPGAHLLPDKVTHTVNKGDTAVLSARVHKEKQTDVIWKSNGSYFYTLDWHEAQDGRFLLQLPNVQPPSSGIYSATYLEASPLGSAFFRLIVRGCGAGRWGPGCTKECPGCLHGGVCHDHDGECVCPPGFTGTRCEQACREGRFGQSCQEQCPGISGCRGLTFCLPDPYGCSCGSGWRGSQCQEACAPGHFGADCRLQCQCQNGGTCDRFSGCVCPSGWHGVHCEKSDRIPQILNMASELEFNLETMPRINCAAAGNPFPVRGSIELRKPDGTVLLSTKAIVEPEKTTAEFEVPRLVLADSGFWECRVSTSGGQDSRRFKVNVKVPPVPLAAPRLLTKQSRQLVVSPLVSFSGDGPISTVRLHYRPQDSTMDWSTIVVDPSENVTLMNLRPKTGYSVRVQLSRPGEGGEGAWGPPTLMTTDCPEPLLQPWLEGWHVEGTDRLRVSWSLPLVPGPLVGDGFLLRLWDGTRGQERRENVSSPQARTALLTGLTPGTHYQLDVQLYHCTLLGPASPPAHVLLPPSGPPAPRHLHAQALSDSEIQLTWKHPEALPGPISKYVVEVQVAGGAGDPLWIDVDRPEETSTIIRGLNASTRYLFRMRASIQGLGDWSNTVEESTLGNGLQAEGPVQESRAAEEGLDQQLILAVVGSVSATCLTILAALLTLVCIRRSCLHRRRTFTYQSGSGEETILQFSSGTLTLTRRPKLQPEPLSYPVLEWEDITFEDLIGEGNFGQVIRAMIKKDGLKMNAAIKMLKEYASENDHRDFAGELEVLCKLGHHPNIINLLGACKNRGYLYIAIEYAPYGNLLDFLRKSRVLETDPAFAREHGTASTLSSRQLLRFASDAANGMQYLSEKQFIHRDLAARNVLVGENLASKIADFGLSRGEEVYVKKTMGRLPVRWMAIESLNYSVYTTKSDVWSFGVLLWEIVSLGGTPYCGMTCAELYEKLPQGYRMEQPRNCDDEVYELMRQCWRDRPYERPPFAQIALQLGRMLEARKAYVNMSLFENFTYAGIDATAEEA

VRK2 (human) = VRK2 (human) (UniProt Q86Y07)
DYRK1B (human) = DYRK1B (human) (UniProt Q9Y463)
CSNK2A2 (human) = CSNK2A2 (human) (UniProt P19784)
RPS6KA1 KD2 (human) = RPS6KA1 KD2 (human) (UniProt Q15418)
CDC42BPB (human) = CDC42BPB (human) (UniProt Q9Y5S2)
MAPK4 (human) = MAPK4 (human) (UniProt P31152)
MAPK4 (human), sequence (P31152 whole entry, looked up): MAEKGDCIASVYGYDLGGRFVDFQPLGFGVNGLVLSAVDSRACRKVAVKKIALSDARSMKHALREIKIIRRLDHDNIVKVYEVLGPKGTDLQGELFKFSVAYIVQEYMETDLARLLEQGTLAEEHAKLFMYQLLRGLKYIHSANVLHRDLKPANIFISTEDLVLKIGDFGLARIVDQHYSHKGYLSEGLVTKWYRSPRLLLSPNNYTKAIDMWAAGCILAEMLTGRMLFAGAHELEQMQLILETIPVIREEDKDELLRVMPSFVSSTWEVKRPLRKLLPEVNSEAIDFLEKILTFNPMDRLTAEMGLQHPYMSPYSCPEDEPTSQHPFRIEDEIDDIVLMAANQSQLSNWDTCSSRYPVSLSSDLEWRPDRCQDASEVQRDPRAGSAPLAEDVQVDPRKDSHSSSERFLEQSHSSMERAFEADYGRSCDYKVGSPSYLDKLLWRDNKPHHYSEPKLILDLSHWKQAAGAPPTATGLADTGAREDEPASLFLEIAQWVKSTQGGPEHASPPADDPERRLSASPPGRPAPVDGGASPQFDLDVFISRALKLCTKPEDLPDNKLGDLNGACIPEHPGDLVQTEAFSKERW

SRPK2 (human) = SRPK2 (human) (UniProt P78362)
STK3 (human) = STK3 (human) (UniProt Q13188)
STK3 (human), sequence (Q13188 whole entry, looked up): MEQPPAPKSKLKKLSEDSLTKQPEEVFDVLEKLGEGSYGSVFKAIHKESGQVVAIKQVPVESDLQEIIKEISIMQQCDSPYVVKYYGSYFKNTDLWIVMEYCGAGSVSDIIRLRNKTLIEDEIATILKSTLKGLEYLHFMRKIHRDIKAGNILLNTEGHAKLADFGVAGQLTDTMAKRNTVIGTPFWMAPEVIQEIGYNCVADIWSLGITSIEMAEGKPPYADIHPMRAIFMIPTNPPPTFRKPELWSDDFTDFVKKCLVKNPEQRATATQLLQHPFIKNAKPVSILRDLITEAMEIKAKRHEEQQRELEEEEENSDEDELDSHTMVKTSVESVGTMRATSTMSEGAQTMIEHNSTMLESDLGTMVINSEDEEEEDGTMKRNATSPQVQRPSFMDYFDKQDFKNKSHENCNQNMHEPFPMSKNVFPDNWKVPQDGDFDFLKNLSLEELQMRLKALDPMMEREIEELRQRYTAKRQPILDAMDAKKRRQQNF

SMILES: CCc1ccc(C(=O)Nc2cc(CN3CCN(C)CC3)cc(C(F)(F)F)c2)cc1C#Cc1cnc2ccnn2c1
- kinase still bound, per cent of control (PHKG2 (human)): 66%
- kinase still bound, per cent of control (IRAK1 (human)): 100%
- kinase still bound, per cent of control (RPS6KA6 KD2 (human)): 100%
- kinase still bound, per cent of control (PRKCH (human)): 100%
- kinase still bound, per cent of control [1]: 100%
- kinase still bound, per cent of control [2]: 86%
- kinase still bound, per cent of control (MAPKAPK2 (human)): 100%
- kinase still bound, per cent of control (MAST1 (human)): 100%
- kinase still bound, per cent of control [3]: 100%
- kinase still bound, per cent of control (MERTK (human)): 52%
- kinase still bound, per cent of control [4]: 100%
- kinase still bound, per cent of control (WEE1 (human)): 100%
- kinase still bound, per cent of control (DAPK3 (human)): 80%
- kinase still bound, per cent of control (EPHB6 (human)): 100%
- kinase still bound, per cent of control [5]: 24%
- kinase still bound, per cent of control (CAMK1D (human)): 84%
- kinase still bound, per cent of control [6]: 100%
- kinase still bound, per cent of control [7]: 69%
- kinase still bound, per cent of control (BMP2K (human)): 86%
- kinase still bound, per cent of control (HIPK4 (human)): 78%
- kinase still bound, per cent of control (PKN2 (human)): 74%
- kinase still bound, per cent of control (MAPK8 (human)): 100%
- kinase still bound, per cent of control (CSNK1G2 (human)): 100%
- kinase still bound, per cent of control (CDK15 (human)): 100%
- kinase still bound, per cent of control (MAP3K6 (human)): 100%
- kinase still bound, per cent of control (CSK (human)): 92%
- kinase still bound, per cent of control (BMX (human)): 100%
- kinase still bound, per cent of control (NEK6 (human)): 100%
- kinase still bound, per cent of control (NEK7 (human)): 95%
- kinase still bound, per cent of control (RPS6KA2 KD1 (human)): 78%
- kinase still bound, per cent of control (CDK16 (human)): 100%
- kinase still bound, per cent of control (TIE1 (human)): 51%
- kinase still bound, per cent of control (VRK2 (human)): 100%
- kinase still bound, per cent of control (DYRK1B (human)): 53%
- kinase still bound, per cent of control (CSNK2A2 (human)): 100%
- kinase still bound, per cent of control (RPS6KA1 KD2 (human)): 100%
- kinase still bound, per cent of control (CDC42BPB (human)): 78%
- kinase still bound, per cent of control (MAPK4 (human)): 90%
- kinase still bound, per cent of control (SRPK2 (human)): 75%
- kinase still bound, per cent of control (STK3 (human)): 100%
